This is an account of results in US7589109B2, “Oxyindole derivatives” (Pfizer Inc, priority 2005, dated 2009).

For the first series, the target named is T1, 5-HT4 receptors in the rat esophagus (Rattus norvegicus, UniProt Q62758).
T1 construct: The remaining inner tube of smooth muscle was known as the TMM; tissue Charles River (animals); host or cells: rat esophagus tunica muscularis mucosae (TMM) smooth muscle, organ bath
T1 sequence (Q62758 whole entry): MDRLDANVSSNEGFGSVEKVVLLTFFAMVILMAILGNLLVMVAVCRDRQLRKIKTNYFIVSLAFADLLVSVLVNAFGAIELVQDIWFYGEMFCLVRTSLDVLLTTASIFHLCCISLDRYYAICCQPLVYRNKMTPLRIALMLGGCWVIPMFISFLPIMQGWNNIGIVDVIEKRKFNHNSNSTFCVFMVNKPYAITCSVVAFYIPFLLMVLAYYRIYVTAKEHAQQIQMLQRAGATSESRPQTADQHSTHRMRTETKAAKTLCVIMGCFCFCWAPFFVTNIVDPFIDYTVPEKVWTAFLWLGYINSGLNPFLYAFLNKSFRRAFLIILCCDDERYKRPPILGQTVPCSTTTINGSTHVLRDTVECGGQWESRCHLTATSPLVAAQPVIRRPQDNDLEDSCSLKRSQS
The series can be described thus: TMM functional assay. As to conditions: 1 μM antagonist added to bath; carbachol-contracted rat TMM relaxed by 5-HT. The text has this:
More specifically, partial agonist activity can be measured according to the following procedures.
Male SD rats (Charles River) weighing 250-350 g were stunned and then killed by cervical dislocation. The esophagus was dissected from immediately proximal to the stomach (including piece of stomach to mark distal end) up to the level of the trachea and then placed in fresh Krebs' solution.
The outer skeletal muscle layer was removed in one go by peeling it away from the underlying smooth muscle layer using forceps (stomach to tracheal direction). The remaining inner tube of smooth muscle was known as the TMM. This was trimmed to 2 cm from the original ‘stomach-end’ and the rest discarded.
The TMMs were mounted as whole ‘open’ tubes in longitudinal orientation in 5 ml organ baths filled with warm (32° C.) aerated Krebs. Tissues were placed under an initial tension of 750 mg and allowed to equilibrate for 60 minutes. The tissues were re-tensioned twice at 15 minute intervals during the equilibration period. The pump flow rate was set to 2 ml/min during this time.
Following equilibration, the pump was switched off. The tissues were exposed to 1 μM carbachol and contracted and reached a steady contractile plateau within 15 minutes. Tissues were then subject to 1 μM 5-HT (this was to prime the tissues). The tissues relaxed in response to 5-HT fairly rapidly—within 1 minute. […]
For the compound `O=C(OCCN1CCCCC1)c1c[nH]c2ccccc12` [SB 203,186, 1H-Indole-3-carboxylic acid, 2-(1-piperidinyl)ethyl ester], the “reversal of agonist-induced relaxation” value was “reversed 5-HT induced relaxation”.

Tested on in a further series: not given
Assay: not given
Details: not given
By melting point is commonly meant the temperature, or range, at which the solid turns liquid. Compound `O=C(NCC1CCN(CC2(C(=O)O)CCOCC2)CC1)N1C(=O)C2(CCCC2)c2ccccc21` showed a melting point of 146.3 °C.

`CC(C)(CN1CCC(CNC(=O)N2C(=O)C(C)(C)c3ccccc32)CC1)C(=O)O`: the melting point is 164.5 °C.

Turning to `O=C(NCC1CCN(CC2(C(=O)O)CCCCC2)CC1)N1C(=O)C2(CCCC2)c2ccccc21`, the melting point turned out to be 160.4 °C.

Compound `CC1(C)C(=O)N(C(=O)NCC2CCN(CC3(C(=O)O)CCC3)CC2)c2cc(F)ccc21` showed a melting point of 193 °C.

Turning to `CC(C)(CN1CCC(CNC(=O)N2C(=O)C(C)(C)c3ccc(F)cc32)CC1)C(=O)O`, the melting point came out at 134 °C.

With `CC1(C)C(=O)N(C(=O)NCC2CCN(C(C)(C)C(=O)O)CC2)c2cc(F)ccc21`, the melting point was 213 °C.

The compound `CC(C)(CN1CCC(CNC(=O)N2C(=O)C3(CCCC3)c3ccccc32)CC1)C(=O)O` yielded a melting point of 189.1 °C.

`CC(C)(CN1CCC(F)(CNC(=O)N2C(=O)C(C)(C)c3ccc(F)cc32)CC1)C(=O)O` showed a melting point of 176 °C.

The compound `CC(C)(CN1CCC(F)(CNC(=O)N2C(=O)C(C)(C)c3ccccc32)CC1)C(=O)O` displayed a melting point of 156 °C.

`CC1(C)C(=O)N(C(=O)NCC2(O)CCN(CC3(C(=O)O)CCC3)CC2)c2cc(F)ccc21` displayed a melting point of 159 °C.

Turning to `O=C(NCC1CCN(CC2(C(=O)O)CC2)CC1)N1C(=O)C2(CCCC2)c2ccccc21`, the melting point was 186.5 °C.

`O=C(NCC1CCN(CC2(C(=O)O)CCCC2)CC1)N1C(=O)C2(CCCC2)c2ccccc21` showed a melting point of 188.1 °C.

On to `O=C(NCC1CCN(CC2(C(=O)O)CCC2)CC1)N1C(=O)C2(CCCC2)c2ccccc21`, for which the melting point was found to be 171 °C.

For the compound `O=C(NCC1CCN(CC2(C(=O)O)CCC2)CC1)N1C(=O)C2(CCCC2)c2ccc(F)cc21`, the melting point was found to be 150.3 °C.

In the case of `O=C(NCC1CCN(CC2(C(=O)O)CCOCC2)CC1)N1C(=O)C2(CCCC2)c2ccc(F)cc21`, the melting point stood at 161.3 °C.

Take `CC1(C)C(=O)N(C(=O)NCC2CCN(CC3(C(=O)O)CCC3)CC2)c2ccccc21`: the melting point came to 170.9 °C.
